{
  "source": "patent US11766430B2",
  "about": "“Methods of using a phenoxypropylamine compound to treat pain” (Minerva Neurosciences, Inc., priority 2018, dated 2023)",
  "key": {"[1]": {"test": "Body weight, reversal study (Example 6)", "type": "in vivo, Male Sprague Dawley rats", "conditions": "1, 3 and 10 mg/kg i.p. once daily for 2 weeks; repeated measures ANOVA", "experimental": "Body weight (BW) was measured daily during treatment and twice a week after cessation of dosing.\nData was analyzed by analysis of variance (ANOVA) followed by post-hoc comparisons where appropriate. An effect will be considered significant if p<0.05. Data was represented as the mean and standard error to the mean (s.e.m). Statistical outliers that fell above or below 2 standard deviations of the mean were identified but not removed from the final analysis."}, "[2]": {"tested_on": "chemotherapy-induced peripheral neuropathic pain in rats", "test": "Paclitaxel-induced peripheral neuropathic pain, paw withdrawal threshold with von Frey filaments, single administration (Example 5)", "type": "in vivo, Male Sprague Dawley rats", "conditions": "for Paw withdrawal threshold (PWT) compared to vehicle (in words): Day 14; for Paw withdrawal threshold (PWT), Day 14 Avg., Mean: i.p., 2 hours prior to test, Count 12", "experimental": "Assessment of neuropathic pain using von Frey filaments was performed. Rats were administered paclitaxel (2 mg/kg) on four alternate days (days 1, 3, 5 and 7). Baseline and post treatment paw withdrawal thresholds (PWT) were evaluated using von Frey filaments (Semmes-Weinstein filaments, Stoelting, Wood Dale, Ill., USA) of varying stiffness (0.4, 0.7, 1.2, 2.0, 3.6, 5.5, 8.5, 10, 15, 26 g). Animals were placed on a perforated metallic platform and allowed to acclimate to their surroundings for a minimum of 15 minutes before each test session. Each filament was presented perpendicular to the plantar surface with sufficient force to cause slight buckling against the paw, and then held until a positive response is noted (paw sharply withdrawn). As described by Chaplan, S. R. et al. “Qualitative Assessment of Tactile Allodynia in the Rat Paw” Journal of Neuroscience Methods, 53 (1994), 55-63 (“Chaplan”), once the threshold was crossed, the 2 responses straddling the threshold are retrospectively designated as the first 2 responses. Four additional responses were measured to stimuli varied sequentially up or down based on the animal's response. The 6 responses in the immediate vicinity of the threshold were used to calculate the 50% g threshold: 50% g threshold=(10^[Xf+k*d])/10000\nXf is the final filament used (in log units). The parameter k is from the Appendix 1 in Chaplan and was determined by the pattern of the von Frey responses (e.g. OXOXOX where ‘O’ indicates no response and ‘X’ denotes a withdrawal). The parameter d is the difference between stimuli which Chaplan used a constant d=0.224. To accommodate for the use of the 10 g and 26 g filaments, the exact difference between stimuli were used.\nMale Sprague Dawley rats (from Envigo, Ind., USA) were used in the study. Animals were received at approximately 250 g and housed 3 per cage upon arrival. All rats were examined, handled, and weighed prior to initiation of the study to assure adequate health and suitability. During the course of the study, 12 h/12 h light/dark cycles was maintained. The room temperature was be maintained between 20 and 23° C. with a relative humidity maintained around 50%. Chow and water was provided ad libitum for the duration of the study. All testing was performed during the animal's light cycle phase. Every effort was made to minimize suffering of animals. Rats with baseline PWT less than 12 g were not included in the study. Rats were balanced by body weight and by their pre-paclitaxel PWT values. ANOVA found no significant differences between the treatment groups.\nPaclitaxel was purchased from Biolyse Pharma (Ontario, Canada) and was injected i.p. (2 mg/kg) on four alternate days (day 1, 3, 5 and 7) for a total of 4 injections at a dose volume of 1 mL/kg.\nRats were subsequently balanced and assigned to treatment groups based on post-paclitaxel PWT values. On test day, PWT was assessed two hours post vehicle or MIN-117 injections and one hour after gabapentin administration.\nGabapentin was purchased from Toronto Research Chemicals and was dissolved in saline and administered orally 60 minutes prior to test at a dose volume of 1 mL/kg. MIN-117 (1, 3 and 10 mg/kg), formulated in 0.5% (w/v) hydroxypropylmethylcellulose (HPMC, Sigma-Aldrich), was administered i.p. at a dose volume of 1 mL/kg. MIN-117 was administered 2 hours prior to test."}},
  "note": "“Also recorded” adds a separate entry of the source.",
  "data": [
    {"compound": "Cc1nnc(-c2cc3c(OC[C@@H](O)CN4CCC(c5ccc(Cl)c(Cl)c5)CC4)cccc3o2)o1.Cl", "note": "[MIN-117, (2S)-1-(4-(3,4-dichlorophenyl)piperidin-1-yl)-3-((2-(5-methyl-1,3,4-oxadiazol-2-yl)benzofuran-4-yl)oxy)propan-2-ol hydrochloride]", "values": [
      {"measurement": "Body weight during treatment compared to vehicle (in words)", "setting": "[1]", "value": "no significant treatment effect"},
      {"measurement": "Paw withdrawal threshold (PWT) compared to vehicle (in words)", "setting": "[2]; 1 mg/kg i.p. 2 hours prior to test", "value": "did not show a significant increase in PWT"},
      {"measurement": "Paw withdrawal threshold (PWT) compared to vehicle (in words)", "setting": "[2]; 3 mg/kg i.p. 2 hours prior to test, hydrochloride, 3 mg/kg", "value": "significant increase in PWT; also recorded: significantly reduced neuropathic pain"},
      {"measurement": "Paw withdrawal threshold (PWT) compared to vehicle (in words)", "setting": "[2]; 10 mg/kg i.p. 2 hours prior to test, hydrochloride, 10 mg/kg", "value": "significant increase in PWT; also recorded: significantly reduced neuropathic pain"},
      {"measurement": "Mean Diff. of Day 14 Avg. PWT, Fisher's PLSD", "setting": "[2]; Paclitaxel + Gabapentin (100 mg/kg), Paclitaxel + MIN-117 (1 mg/kg)", "value": 14.200},
      {"measurement": "Mean Diff. of Day 14 Avg. PWT, Fisher's PLSD", "setting": "[2]; Paclitaxel + Gabapentin (100 mg/kg), Paclitaxel + MIN-117 (3 mg/kg)", "value": 12.775},
      {"measurement": "Mean Diff. of Day 14 Avg. PWT, Fisher's PLSD", "setting": "[2]; Paclitaxel + Gabapentin (100 mg/kg), Paclitaxel + MIN-117 (10 mg/kg)", "value": 11.802},
      {"measurement": "Mean Diff. of Day 14 Avg. PWT, Fisher's PLSD", "setting": "[2]; Paclitaxel + MIN-117 (1 mg/kg), Paclitaxel + MIN-117 (3 mg/kg)", "value": "−1.425"},
      {"measurement": "Mean Diff. of Day 14 Avg. PWT, Fisher's PLSD", "setting": "[2]; Paclitaxel + MIN-117 (1 mg/kg), Paclitaxel + MIN-117 (10 mg/kg)", "value": "−2.399"},
      {"measurement": "Paw withdrawal threshold (PWT), Day 14 Avg., Mean", "setting": "[2]; Paclitaxel + MIN-117 (1 mg/kg)", "value": 5.433, "unit": "g"},
      {"measurement": "Paw withdrawal threshold (PWT), Day 14 Avg., Mean", "setting": "[2]; Paclitaxel + MIN-117 (3 mg/kg)", "value": 6.858, "unit": "g"},
      {"measurement": "Paw withdrawal threshold (PWT), Day 14 Avg., Mean", "setting": "[2]; Paclitaxel + MIN-117 (10 mg/kg)", "value": 7.832, "unit": "g"},
      {"measurement": "Mean Diff. of Day 14 Avg. PWT, Fisher's PLSD", "setting": "[2]; Paclitaxel + Vehicle, Paclitaxel + MIN-117 (1 mg/kg)", "value": "−1.558"},
      {"measurement": "Mean Diff. of Day 14 Avg. PWT, Fisher's PLSD", "setting": "[2]; Paclitaxel + Vehicle, Paclitaxel + MIN-117 (3 mg/kg)", "value": "−2.984"},
      {"measurement": "Mean Diff. of Day 14 Avg. PWT, Fisher's PLSD", "setting": "[2]; Paclitaxel + Vehicle, Paclitaxel + MIN-117 (10 mg/kg)", "value": "−3.957"}
    ]}
  ]
}
